The results in this text go back to PubChem BioAssay AID192 (DTP/NCI, 2004).

Values joined by “and” are separate entries in the source; they are usually repeats but may differ in a detail not shown here. Equal entries are not always repeated. Toxic doses and inconclusive results are not listed.

In this test the test system is BDF1 mice, B16 melanoma ip, median survival T/C. In words: NCI In Vivo Anticancer Drug Screen. Data for tumor model B16 Melanoma (intraperitoneal) in B6D2F1 (BDF1) mice. To be noted: endpoint: median survival time, higher = longer survival. Put shortly:
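Mice with transplantable tumors; drug vs vehicle groups; endpoint survival or tumor size; value = T/C.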

[1] abbreviates: dose: 3.12 mg/kg/injection, schedule: Q01DX009 (ip), vehicle: saline.
[2] abbreviates: dose: 3.12 mg/kg/injection, schedule: Q04DX003 (ip), vehicle: saline.
The mark [3] stands for this setting: dose: 6.25 mg/kg/injection, schedule: Q04DX003 (ip), vehicle: saline.
[4] abbreviates: dose: 12.5 mg/kg/injection, schedule: Q01DX009 (ip), vehicle: saline.
Setting [5] is: dose: 0.12 mg/kg/injection, schedule: Q01DX009 (ip), vehicle: Klucel (hydroxypropylcellulose) (HPC).
The mark [6] stands for this setting: dose: 0.25 mg/kg/injection, schedule: Q01DX009 (ip), vehicle: Klucel (hydroxypropylcellulose) (HPC).
[7] abbreviates: dose: 0.5 mg/kg/injection, schedule: Q01DX009 (ip), vehicle: Klucel (hydroxypropylcellulose) (HPC).
[8] abbreviates: dose: 1.0 mg/kg/injection, schedule: Q01DX009 (ip), vehicle: Klucel (hydroxypropylcellulose) (HPC).
Where [9] appears, read: dose: 12.5 mg/kg/injection, schedule: Q01DX009 (ip), vehicle: saline with Tween-80.
Where [10] appears, read: dose: 25.0 mg/kg/injection, schedule: Q01DX009 (ip), vehicle: saline with Tween-80.
The mark [11] stands for this setting: dose: 50.0 mg/kg/injection, schedule: Q01DX009 (ip), vehicle: saline with Tween-80.
The mark [12] stands for this setting: dose: 100.0 mg/kg/injection, schedule: Q01DX009 (ip), vehicle: saline with Tween-80.
The mark [13] stands for this setting: dose: 200.0 mg/kg/injection, schedule: Q01DX009 (ip), vehicle: saline with Tween-80.

As for `FC(F)(F)c1ccc2c(c1)N(CCCNCCN1CCOCC1)c1ccccc1S2`, the T/C reads like this: (dose: 1.56 mg/kg/injection, schedule: Q01DX009 (ip), vehicle: saline) 105 % of control; (dose: 1.56 mg/kg/injection, schedule: Q04DX003 (ip), vehicle: saline) 93 % of control and 95 % of control; under setting [1], 88 % of control; under setting [2], 102 % of control; under setting [3], 100 % of control and 105 % of control; under setting [4], 100 % of control. Also, the T/C (dose: 12.5 mg/kg/injection, schedule: Q04DX003 (ip), vehicle: saline) was 93 % of control and 107 % of control; the T/C (dose: 25.0 mg/kg/injection, schedule: Q04DX003 (ip), vehicle: saline) was 99 % of control and 100 % of control; the T/C (dose: 50.0 mg/kg/injection, schedule: Q04DX003 (ip), vehicle: saline) is 90 % of control.
For the compound `C[C@@H]1C[C@@]2(O[C@@H]2C)C(=O)O[C@@H]2CCN3CC=C(COC(=O)[C@]1(C)O)[C@H]23`, the T/C (dose: 10.0 mg/kg/injection, schedule: Q01DX009 (ip), vehicle: saline) was 102 % of control; the T/C (dose: 20.0 mg/kg/injection, schedule: Q01DX009 (ip), vehicle: saline) was 102 % of control; the T/C (dose: 40.0 mg/kg/injection, schedule: Q01DX009 (ip), vehicle: saline) is 104 % of control.
As to `C[C@@]12C(=O)OC(=O)[C@]1(C)[C@H]1CC[C@@H]2O1`, the T/C is 89 % of control (dose: 0.06 mg/kg/injection, schedule: Q01DX009 (ip), vehicle: Klucel (hydroxypropylcellulose) (HPC)); 93 % of control under setting [5]; 103 % of control (dose: 0.13 mg/kg/injection, schedule: Q01DX009 (ip), vehicle: acetone); 90 % of control under setting [6]; 101 % of control (dose: 0.25 mg/kg/injection, schedule: Q01DX009 (ip), vehicle: acetone); 102 % of control under setting [7]. Also, the T/C is, setting by setting: (dose: 0.5 mg/kg/injection, schedule: Q01DX009 (ip), vehicle: acetone) 110 % of control; under setting [8], 96 % of control.
On to `Nc1nc(N)n2c(N)nnc2n1`, for which the T/C reads like this: (dose: 100.0 mg/kg/injection, schedule: Q01DX009 (ip), vehicle: saline) 87 % of control; (dose: 200.0 mg/kg/injection, schedule: Q01DX009 (ip), vehicle: saline) 88 % of control.
As to `Cc1ccc([N+](=O)[O-])cc1NC(=O)Oc1ccc(Cl)cc1`, the T/C by setting is: (dose: 25.0 mg/kg/injection, schedule: Q04DX009 (ip), vehicle: Klucel (hydroxypropylcellulose) (HPC)) 94 % of control; (dose: 50.0 mg/kg/injection, schedule: Q04DX009 (ip), vehicle: Klucel (hydroxypropylcellulose) (HPC)) 104 % of control; (dose: 100.0 mg/kg/injection, schedule: Q04DX003 (ip), vehicle: carboxymethylcellulose (CMC)) 93 % of control; (dose: 100.0 mg/kg/injection, schedule: Q04DX009 (ip), vehicle: Klucel (hydroxypropylcellulose) (HPC)) 96 % of control; (dose: 400.0 mg/kg/injection, schedule: Q04DX003 (ip), vehicle: carboxymethylcellulose (CMC)) 86 % of control.
With `CN1CCN(C2=C(Cl)C(=O)c3ccccc3C2=O)CC1`, the T/C is 95 % of control (dose: 1.25 mg/kg/injection, schedule: Q01DX009 (ip), vehicle: saline) and 88 % of control (dose: 2.5 mg/kg/injection, schedule: Q01DX009 (ip), vehicle: saline).
As to `Nc1nc(-c2ccccc2N=NN2CCCCC2)nc2ccccc12`, the T/C is 97 % of control (dose: 50.0 mg/kg/injection, schedule: Q04DX003 (ip), vehicle: Klucel (hydroxypropylcellulose) (HPC)); 91 % of control (dose: 100.0 mg/kg/injection, schedule: Q04DX003 (ip), vehicle: Klucel (hydroxypropylcellulose) (HPC)); 113 % of control (dose: 200.0 mg/kg/injection, schedule: Q04DX003 (ip), vehicle: Klucel (hydroxypropylcellulose) (HPC)).
Take `C/C(=N/NC(=O)c1ccccc1)c1ccccc1O`: the T/C is 93 % of control (dose: 100.0 mg/kg/injection, schedule: Q04DX003 (ip), vehicle: gum acacia); 95 % of control (dose: 200.0 mg/kg/injection, schedule: Q04DX003 (ip), vehicle: gum acacia); 93 % of control (dose: 400.0 mg/kg/injection, schedule: Q04DX003 (ip), vehicle: gum acacia).
On to `O=Nc1ccc2cc(O)ccc2c1O`, for which the T/C is, setting by setting: (dose: 3.12 mg/kg/injection, schedule: Q04DX003 (ip), vehicle: Klucel (hydroxypropylcellulose) (HPC)) 97 % of control; (dose: 6.25 mg/kg/injection, schedule: Q01DX009 (ip), vehicle: Klucel (hydroxypropylcellulose) (HPC)) 95 % of control; (dose: 6.25 mg/kg/injection, schedule: Q04DX003 (ip), vehicle: Klucel (hydroxypropylcellulose) (HPC)) 102 % of control; (dose: 12.5 mg/kg/injection, schedule: Q01DX009 (ip), vehicle: Klucel (hydroxypropylcellulose) (HPC)) 109 % of control; (dose: 12.5 mg/kg/injection, schedule: Q04DX003 (ip), vehicle: Klucel (hydroxypropylcellulose) (HPC)) 100 % of control.
As to `ClCCCN1CCCCC1CCl` (centres undefined), the T/C runs as follows: under setting [1], 111 % of control; under setting [2], 105 % of control; under setting [3], 116 % of control; (dose: 8.33 mg/kg/injection, schedule: Q01DX009 (ip), vehicle: water) 155 % of control and 159 % of control; under setting [4], 176 % of control; (dose: 12.5 mg/kg/injection, schedule: Q01DX009 (ip), vehicle: water) 185 % of control and 192 % of control.
For `O=C(Nc1ccccc1C(=O)O)c1cc([N+](=O)[O-])cc([N+](=O)[O-])c1`, the T/C by setting is: under setting [9], 98 % of control; under setting [10], 101 % of control; under setting [11], 111 % of control; under setting [12], 95 % of control; under setting [13], 87 % of control.
Turning to `CC1CCCC(C)N1NC1=NCCO1` (centres undefined), the T/C is 97 % of control under setting [9], 102 % of control under setting [10] and 97 % of control under setting [11].
As for `O=C(c1ccncc1)c1c(Cc2ccccc2)ccc2ccccc12`, the T/C runs as follows: under setting [11], 100 % of control; under setting [12], 99 % of control; under setting [13], 95 % of control; (dose: 400.0 mg/kg/injection, schedule: Q01DX009 (ip), vehicle: saline with Tween-80) 95 % of control.
Turning to `CC[C@@]1(O)C(=O)OCc2c1cc1n(c2=O)Cc2cc3ccccc3nc2-1`, the T/C runs as follows: (dose: 0.39 mg/kg/injection, schedule: Q01DX009 (ip), vehicle: other) 151 % of control; (dose: 0.79 mg/kg/injection, schedule: Q01DX009 (ip), vehicle: other) 189 % of control.
Regarding `C[Si]1(C)CCCSC1`, the T/C runs as follows: under setting [9], 98 % of control; under setting [10], 98 % of control; under setting [11], 91 % of control.
For `C[N+](C)(C)C1CC1`, the T/C is, setting by setting: under setting [4], 105 % of control; (dose: 25.0 mg/kg/injection, schedule: Q01DX009 (ip), vehicle: saline) 102 % of control; (dose: 50.0 mg/kg/injection, schedule: Q01DX009 (ip), vehicle: saline) 102 % of control.
Consider `COc1ccc2nc3cc(Cl)ccc3c(NCCO)c2c1`, for which the T/C by setting is: (dose: 37.5 mg/kg/injection, schedule: Q01DX009 (ip), vehicle: saline with Tween-80) 104 % of control; (dose: 75.0 mg/kg/injection, schedule: Q01DX009 (ip), vehicle: saline with Tween-80) 106 % of control.
As to `CC1CC(C)CC(C)C(O)/C(C#N)=C/C=C/CC(C2CCCC2C(=O)O)OC(=O)CC(O)C(C)C1` (centres undefined), the T/C is 111 % of control under setting [5]; 119 % of control (dose: 0.12 mg/kg/injection, schedule: Q01DX009 (ip), vehicle: saline with Tween-80); 108 % of control under setting [6]; 113 % of control (dose: 0.25 mg/kg/injection, schedule: Q01DX009 (ip), vehicle: saline with Tween-80); 110 % of control under setting [7]; 107 % of control under setting [8]. The T/C by setting is: (dose: 2.0 mg/kg/injection, schedule: Q01DX009 (ip), vehicle: Klucel (hydroxypropylcellulose) (HPC)) 105 % of control; (dose: 4.0 mg/kg/injection, schedule: Q01DX009 (ip), vehicle: Klucel (hydroxypropylcellulose) (HPC)) 98 % of control.
As for `CN=C1N[N+]2=CCCCC2S1` (centres undefined), the T/C is, setting by setting: (dose: 40.0 mg/kg/injection, schedule: Q01DX011 (ip), vehicle: saline) 104 % of control; (dose: 60.0 mg/kg/injection, schedule: Q01DX011 (ip), vehicle: saline) 112 % of control; (dose: 80.0 mg/kg/injection, schedule: Q01DX011 (ip), vehicle: saline) 111 % of control.
